Experimental data taken from ChEMBL document CHEMBL1136153, “2-oxoglutarate analogue inhibitors of HIF prolyl hydroxylase” (Bioorg Med Chem Lett, 2003).

Test: Inhibitory concentration against oxoglutarate oxygenase was determined

IC50: 120 µM
Compound: O=C(O)CCC(S)C(=O)O (stereo unspecified)
